We go through 23 compounds from patent publication US10519177B2, “Heterocyclic compounds and uses thereof” (Plexxikon Inc., priority 2013, dated 2019).

The test system of one test is MV-4-11 cells. Nature of the test: Oncology cell growth assay MV-4-11 (CellTiter Glo). The format is cell-based. The gist of the method: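 MV-4-11 AML cells (MLL-AF4), 3000 per well, exposed to 8-point 1:3 compound titration from 10 μM top concentration (0.2% DMSO) for 72 h. Viability by CellTiter Glo luminescence, normalized to DMSO controls; pIC50 from four-parameter curve fit.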
On the technique in general: In ATP-based viability assays light output follows the ATP content of the culture.

A further test concerns bromodomain. The test is described as follows: at least one of the bromodomain cell assays of Example 57. The format is cell-based. As to conditions: read-out: IC50 in at least one of the bromodomain cell assays.
A further test concerns the target BRD4-BD1 (44-164) (Homo sapiens (Human), UniProt O60885). Nature of the test: Alphascreen binding assay BRD4-BD1. The following applies: BRD4(1) H4; read-out: Biochemical activity (IC50 μM) BRD4(1) H4. The method in brief: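 His-tagged E. coli-expressed BRD4 BD1 (44-164) or BD1-BD2 (1-477) incubated 1 h at room temperature with biotinylated tetra-acetylated histone H4 1-21 peptide and compound in HEPES pH 7.5, NaCl, BSA, Triton X-100, DTT buffer. Ni-chelate/streptavidin AlphaScreen beads (7.5 µg/ml) added, read after 30 min; pIC50 from four-parameter fit.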
Background: In Alpha technology, singlet oxygen from a donor bead excites a nearby acceptor bead.

For a further test, the target named is BRD4-BD12 (1-477) (Homo sapiens (Human), UniProt O60885). The test is described as follows: Alphascreen binding assay BRD4-BD12. The following applies: BRD4(1 2) H4; read-out: Biochemical activity (IC50 μM) BRD4(1 2) H4. The gist of the method:
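First, compound was preincubated 1 h at room temperature with the His-tagged BRD4 protein (BD1 44-164 or tandem BD12 1-477) and acetylated H4 peptide. Next, donor and acceptor beads were added at 7.5 μg/ml final. After 30 min, AlphaScreen emission was recorded.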

Where [1] appears, read: Homo sapiens, MV4-11, 72 h; read-out: Cell activity (IC50 μM) MV-4-11 3d-Growth.
[2] abbreviates: at least one of the bromodomain cell assays described in Example 57.

Read-outs that look alike come from different tables or passages of the source.

Consider `Cc1noc(C)c1-c1cnc2c(-c3cnc(C4CC4)nc3)cn(C(C)c3ccccc3)c2c1` (centres unmarked) [P-0278, 4-[3-(2-cyclopropylpyrimidin-5-yl)-1-(1-phenylethyl)pyrrolo[3,2-b]pyridin-6-yl]-3,5-dimethyl-isoxazole], for which the IC50 in the test with MV-4-11 cells (setting [1]) was less than 1 µM; in the test with bromodomain (setting [2]), less than 10 µM; on BRD4-BD1 (44-164) it was less than 1 µM; at BRD4-BD12 (1-477), less than 1 µM.

On to `Cc1noc(C)c1-c1cnc2c(-c3cnc(N)cn3)cn(C(C)c3ccccc3)c2c1` (centres unmarked) [P-0279, 5-[6-(3,5-dimethylisoxazol-4-yl)-1-(1-phenylethyl)pyrrolo[3,2-b]pyridin-3-yl]pyrazin-2-amine], for which the IC50 with MV-4-11 cells (setting [1]) is less than 1 µM; in the test with bromodomain (setting [2]), less than 10 µM; on BRD4-BD1 (44-164) it was less than 1 µM; at BRD4-BD12 (1-477), less than 1 µM.

On to `Cc1noc(C)c1-c1cnc2c(Br)cn(C(CC#N)C3CCCC3)c2c1` (centres unmarked) [P-0280, 3-[3-bromo-6-(3,5-dimethylisoxazol-4-yl)pyrrolo[3,2-b]pyridin-1-yl]-3-cyclopentyl-propanenitrile], for which the IC50 is less than 1 µM with MV-4-11 cells (setting [1]), less than 10 µM in the test with bromodomain (setting [2]), less than 1 µM on BRD4-BD1 (44-164) and less than 1 µM at BRD4-BD12 (1-477).

In the case of `Cc1noc(C)c1-c1cnc2c(Br)cn(CC3CCC(F)(F)CC3)c2c1` [P-0281, 4-[3-bromo-1-[(4,4-difluorocyclohexyl)methyl]pyrrolo[3,2-b]pyridin-6-yl]-3,5-dimethyl-isoxazole], the IC50 with MV-4-11 cells (setting [1]) is less than 1 µM; in the test on bromodomain (setting [2]), less than 10 µM; on BRD4-BD1 (44-164), less than 1 µM; on BRD4-BD12 (1-477), less than 1 µM.

For the compound `Cc1noc(C)c1-c1cnc2ccn(CC3CCC(F)(F)CC3)c2c1` [P-0282, 4-[1-[(4,4-difluorocyclohexyl)methyl]pyrrolo[3,2-b]pyridin-6-yl]-3,5-dimethyl-isoxazole], the IC50 in the test on MV-4-11 cells (setting [1]) was less than 1 µM; in the test on bromodomain (setting [2]), less than 10 µM; on BRD4-BD1 (44-164) it was less than 1 µM; on BRD4-BD12 (1-477), 1 to 10 µM.

With `Cc1oncc1-c1cnc2ccn(CC3CCC(F)(F)CC3)c2c1` [P-0283, 4-[1-[(4,4-difluorocyclohexyl)methyl]pyrrolo[3,2-b]pyridin-6-yl]-5-methyl-isoxazole], the IC50 with MV-4-11 cells (setting [1]) was 1 to 10 µM; in the test with bromodomain (setting [2]), less than 10 µM; at BRD4-BD1 (44-164), 1 to 10 µM; at BRD4-BD12 (1-477), 1 to 10 µM.

Consider `Oc1ccc(-c2cnc3ccn(CC4CCC(F)(F)CC4)c3c2)cn1` [P-0284, 5-[1-[(4,4-difluorocyclohexyl)methyl]pyrrolo[3,2-b]pyridin-6-yl]pyridin-2-ol], for which the IC50 is 1 to 10 µM in the test with MV-4-11 cells (setting [1]), less than 10 µM in the test with bromodomain (setting [2]), less than 1 µM at BRD4-BD1 (44-164) and 1 to 10 µM on BRD4-BD12 (1-477).

In the case of `Cc1n[nH]c(C)c1-c1cnc2ccn(CC3CCC(F)(F)CC3)c2c1` [P-0285, l-[(4,4-difluorocyclohexyl)methyl]-6-(3,5-dimethyl-1H-pyrazol-4-yl)pyrrolo[3,2-b]pyridine], the IC50 with MV-4-11 cells (setting [1]) was 1 to 10 µM; in the test on bromodomain (setting [2]), less than 10 µM; at BRD4-BD1 (44-164) it was 1 to 10 µM; at BRD4-BD12 (1-477), 10 to 200 µM.

In the case of `Cc1n[nH]c(C)c1-c1cn(C(C)c2ccccc2)c2cc(-c3c(C)noc3C)cnc12` (centres unmarked) [P-0287, 4-[3-(3,5-dimethyl-1H-pyrazol-4-yl)-1-(1-phenylethyl)pyrrolo[3,2-b]pyridin-6-yl]-3,5-dimethyl-isoxazole], the IC50 is less than 1 µM in the test on MV-4-11 cells (setting [1]), less than 10 µM in the test on bromodomain (setting [2]), less than 1 µM on BRD4-BD1 (44-164) and less than 1 µM at BRD4-BD12 (1-477).

With `Cc1noc(C)c1-c1cnc2c(C#C[Si](C)(C)C)cn(C(C)c3ccccc3)c2c1` (centres unmarked) [P-0288, 2-[6-(3,5-dimethylisoxazol-4-yl)-1-(1-phenylethyl)pyrrolo[3,2-b]pyridin-3-yl]ethynyl-trimethyl-silane], the IC50 in the test with MV-4-11 cells (Homo sapiens, MV4-11, 72 h, read-out: Cell activity (IC50 μM) MV-4-11 3d-Growth) is less than 1 µM; with bromodomain, less than 10 µM; on BRD4-BD1 (44-164), less than 1 µM; at BRD4-BD12 (1-477) it was less than 1 µM.

In the case of `C#Cc1cn(C(C)c2ccccc2)c2cc(-c3c(C)noc3C)cnc12` (centres unmarked) [P-0289, 4-[3-ethynyl-1-(1-phenylethyl)pyrrolo[3,2-b]pyridin-6-yl]-3,5-dimethyl-isoxazole], the IC50 was less than 1 µM in the test on MV-4-11 cells (setting [1]), less than 10 µM in the test with bromodomain (setting [2]), less than 1 µM at BRD4-BD1 (44-164) and less than 1 µM on BRD4-BD12 (1-477).

As for `Cc1noc(C)c1-c1cnc2c(Cl)cn(C(CC#N)C3CCCC3)c2c1` (centres unmarked) [P-0290, 3-[3-chloro-6-(3,5-dimethylisoxazol-4-yl)pyrrolo[3,2-b]pyridin-1-yl]-3-cyclopentyl-propanenitrile], the half-inhibitory concentration (IC50) in the test on MV-4-11 cells (setting [1]) was less than 1 µM; in the test on bromodomain (setting [2]), less than 10 µM; at BRD4-BD1 (44-164), less than 1 µM; at BRD4-BD12 (1-477) it was less than 1 µM.

Regarding `Cc1nnn(C)c1-c1cnc2ccn(CC3CCC(F)(F)CC3)c2c1` [P-0291, l-[(4,4-difluorocyclohexyl)methyl]-6-(3,5-dimethyltriazol-4-yl)pyrrolo[3,2-b]pyridine], the IC50 is 1 to 10 µM in the test on MV-4-11 cells (setting [1]), less than 10 µM in the test on bromodomain (setting [2]), less than 1 µM on BRD4-BD1 (44-164) and 10 to 200 µM on BRD4-BD12 (1-477).

Regarding `Cc1c(-c2cnc3ccn(CC4CCC(F)(F)CC4)c3c2)cnn1C` [P-0293, l-[(4,4-difluorocyclohexyl)methyl]-6-(1,5-dimethylpyrazol-4-yl)pyrrolo[3,2-b]pyridine], the IC50 is 10 to 200 µM with MV-4-11 cells (setting [1]), less than 10 µM with bromodomain (setting [2]), 10 to 200 µM on BRD4-BD1 (44-164) and 10 to 200 µM at BRD4-BD12 (1-477).

For the compound `Cc1nc(C)c(-c2cnc3ccn(CC4CCC(F)(F)CC4)c3c2)s1` [P-0294, 5-[1-[(4,4-difluorocyclohexyl)methyl]pyrrolo[3,2-b]pyridin-6-yl]-2,4-dimethyl-thiazole], the IC50 is 1 to 10 µM in the test with MV-4-11 cells (setting [1]), less than 10 µM in the test with bromodomain (setting [2]), 10 to 200 µM on BRD4-BD1 (44-164) and less than 1 µM on BRD4-BD12 (1-477).

As for `Cc1noc(C)c1-c1cnc2c(-c3cnn(C4COC4)c3)cn(CC3CCC(F)(F)CC3)c2c1` [P-0295, 4-[1-[(4,4-difluorocyclohexyl)methyl]-3-[1-(oxetan-3-yl)pyrazol-4-yl]pyrrolo[3,2-b]pyridin-6-yl]-3,5-dimethyl-isoxazole], the concentration for half-maximal inhibition (IC50) in the test on MV-4-11 cells (setting [1]) is less than 1 µM; in the test on bromodomain (setting [2]), less than 10 µM; on BRD4-BD1 (44-164), less than 1 µM; on BRD4-BD12 (1-477) it was less than 1 µM.

On to `Cc1noc(C)c1-c1cnc2c(-c3cnn(CCN4CCOCC4)c3)cn(CC3CCC(F)(F)CC3)c2c1` [P-0296, 4-[2-[4-[1-[(4,4-difluorocyclohexyl)methyl]-6-(3,5-dimethylisoxazol-4-yl)pyrrolo[3,2-b]pyridin-3-yl]pyrazol-1-yl]ethyl]morpholine], for which the IC50 in the test with MV-4-11 cells (setting [1]) was less than 1 µM; in the test with bromodomain (setting [2]) it was less than 10 µM; on BRD4-BD1 (44-164), less than 1 µM; at BRD4-BD12 (1-477) it was less than 1 µM.

As for `Cc1noc(C)c1-c1cnc2c(-c3cnn(CC(C)C)c3)cn(CC3CCC(F)(F)CC3)c2c1` [P-0297, 4-[1-[(4,4-difluorocyclohexyl)methyl]-3-(1-isobutylpyrazol-4-yl)pyrrolo[3,2-b]pyridin-6-yl]-3,5-dimethyl-isoxazole], the IC50 was less than 1 µM in the test on MV-4-11 cells (setting [1]), less than 10 µM with bromodomain (setting [2]), less than 1 µM on BRD4-BD1 (44-164) and less than 1 µM at BRD4-BD12 (1-477).

Regarding `Cc1noc(C)c1-c1cnc2c(-c3cnn(CCC#N)c3)cn(CC3CCC(F)(F)CC3)c2c1` [P-0298, 3-[4-[1-[(4,4-difluorocyclohexyl)methyl]-6-(3,5-dimethylisoxazol-4-yl)pyrrolo[3,2-b]pyridin-3-yl]pyrazol-1-yl]propanenitrile], the IC50 was less than 1 µM in the test on MV-4-11 cells (setting [1]), less than 10 µM with bromodomain (setting [2]), less than 1 µM on BRD4-BD1 (44-164) and less than 1 µM on BRD4-BD12 (1-477).

As for `Cc1noc(C)c1-c1cnc2c(-c3cnn(Cc4ccccc4)c3)cn(CC3CCC(F)(F)CC3)c2c1` [P-0299, 4-[3-(1-benzylpyrazol-4-yl)-1-[(4,4-difluorocyclohexyl)methyl]pyrrolo[3,2-b]pyridin-6-yl]-3,5-dimethyl-isoxazole], the IC50 in the test on MV-4-11 cells (setting [1]) is less than 1 µM; with bromodomain (setting [2]), less than 10 µM; at BRD4-BD1 (44-164), less than 1 µM; on BRD4-BD12 (1-477), less than 1 µM.

Take `Cc1noc(C)c1-c1cnc2c(-c3c(C)nn(C)c3C)cn(C(C)c3ccccc3)c2c1` (centres unmarked) [P-0300, 3,5-dimethyl-4-[1-(1-phenylethyl)-3-(1,3,5-trimethylpyrazol-4-yl)pyrrolo[3,2-b]pyridin-6-yl]isoxazole]: the half-inhibitory concentration (IC50) is less than 1 µM in the test on MV-4-11 cells (setting [1]), less than 10 µM in the test with bromodomain (setting [2]), less than 1 µM at BRD4-BD1 (44-164) and less than 1 µM at BRD4-BD12 (1-477).

On to `Cc1noc(C)c1-c1cnc2c(-c3cnco3)cn(C(C)c3ccccc3)c2c1` (centres unmarked) [P-0301, 3,5-dimethyl-4-[3-oxazol-5-yl-1-(1-phenylethyl)pyrrolo[3,2-b]pyridin-6-yl]isoxazole], for which the IC50 is less than 1 µM with MV-4-11 cells (setting [1]), less than 10 µM with bromodomain (setting [2]), less than 1 µM on BRD4-BD1 (44-164) and less than 1 µM at BRD4-BD12 (1-477).

As to `Cc1noc(C)c1-c1cnc2c(C#CCO)cn(C(C)c3ccccc3)c2c1` (centres unmarked) [P-0302, 3-[6-(3,5-dimethylisoxazol-4-yl)-1-(1-phenylethyl)pyrrolo[3,2-b]pyridin-3-yl]prop-2-yn-1-ol], the IC50 in the test with MV-4-11 cells (setting [1]) was less than 1 µM; with bromodomain (setting [2]), less than 10 µM; at BRD4-BD1 (44-164) it was less than 1 µM; at BRD4-BD12 (1-477) it was less than 1 µM.

The term IC50 denotes the concentration that inhibits the measured activity by half.
